Experimental data published in US20230270825A1, “STAPLED OLEFIN CO-AGONISTS OF THE GLUCAGON AND GLP-1 RECEPTORS” (Merck Sharp & Dohme LLC, priority 2019, published 2023).
Numbered stars: 1 amine (or outer) side, 2 acyl side, 3 side chain; on linkers, the order of the positions; unused ones are H or OH. Bridge positions count the residues as written; N and C are the ends. Square brackets hold non-standard residues; d marks the D form. Side chains are listed from the residue outwards. Peptide text beside a SMILES is read from it. * marks the point of attachment. Nle(6-ylidene) = O=C([C@H](CCCC=[*:3])N[*:1])[*:2]; γGlu = O=C(O)[C@H](CCC(=O)[*:2])N[*:1]; Palmitoyl = CCCCCCCCCCCCCCCC(=O)*; S5 = C=CCCC[C@](C)(N)C(=O)O; Aib = CC(C)(N)C(=O)O

Tests used:
human GCGR = target: T1, human GCGR (Homo sapiens, UniProt P47871); assay: cAMP activity assay, cells expressing human GCGR (HitHunter cAMP XS); format: cell-based; conditions: ratio of human GCGR EC50 to human GLP1R EC50
T1 construct: expressed in transfected cells; assay-ready frozen cells grown with Blasticidin and Hygromycin
Experimental: (§1) Activity of the peptides at the Glucagon receptor (GCGR) and GLP-1 receptor (GLP1R) was measured in a cAMP activity assay.
(§2) Peptides were dissolved in 100% DMSO and serially diluted to generate 10 point titrations. The peptide solutions were then transferred into 384-well assay plates (150 nL/well).
(§3) Assay ready frozen cells expressing human GLP1R or human GCGR were suspended in growth media consisting of DMEM medium (GIBCO), 10% FBS (GIBCO), 1x NEAA(GIBCO), 1x P/S (GIBCO), 10ug/ml Blasticidin (GIBCO) and 200 µg/mL Hygromycin (GIBCO). Cells were then diluted in assay buffer consisting of PBS (GIBCO), 7.5% BSA (Perkin Elmer), 100 µM RO 20-1724 (Sigma), with or without 20% human serum (MP Biomedical). The cell suspensions (15 µL) were then added to the assay plates containing the peptide solutions (30,000 cells/well for human GCGR; 10.000 cells/well for human GLP1R). The cells were incubated for 1 hour at room temperature in the dark. Production of cAMP was determined using HitHunter™ cAMPXS kits (DiscoverX) following manufacturer protocol. The plates were incubated for overnight at room temperature in the dark. Luminescence was measured using an EnVision Multilabel plate reader (Perkin Elmer). Native GLP-1 and Glucagon (Bachem) are used as control peptides. EC50 values were calculated using uses a 4 parameter logistic fit based on the Levenberg-Marquardt algorithm.

human GLP1R = target: T2, human GLP1R (Homo sapiens, UniProt P43220); assay: cAMP activity assay, cells expressing human GLP1R (HitHunter cAMP XS); format: cell-based; conditions: cAMP production, 1 hour at room temperature; assay buffer with or without 20% human serum (not stated which)
T2 construct: expressed in transfected cells; assay-ready frozen cells grown with Blasticidin and Hygromycin
Experimental: as §1, §2, §3

T2 sequence (P43220 24-463): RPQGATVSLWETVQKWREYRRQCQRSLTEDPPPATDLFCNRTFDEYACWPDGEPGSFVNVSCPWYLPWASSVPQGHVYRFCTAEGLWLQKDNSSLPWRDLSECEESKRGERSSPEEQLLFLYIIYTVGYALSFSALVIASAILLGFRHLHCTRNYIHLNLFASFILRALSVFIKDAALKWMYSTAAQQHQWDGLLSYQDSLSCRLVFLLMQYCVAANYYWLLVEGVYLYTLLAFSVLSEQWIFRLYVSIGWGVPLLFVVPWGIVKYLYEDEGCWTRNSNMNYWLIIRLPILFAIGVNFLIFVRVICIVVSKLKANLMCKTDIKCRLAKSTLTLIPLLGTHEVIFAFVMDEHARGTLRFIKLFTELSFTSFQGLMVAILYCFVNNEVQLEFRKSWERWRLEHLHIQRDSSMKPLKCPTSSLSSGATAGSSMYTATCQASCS
T1 sequence (P47871 26-477): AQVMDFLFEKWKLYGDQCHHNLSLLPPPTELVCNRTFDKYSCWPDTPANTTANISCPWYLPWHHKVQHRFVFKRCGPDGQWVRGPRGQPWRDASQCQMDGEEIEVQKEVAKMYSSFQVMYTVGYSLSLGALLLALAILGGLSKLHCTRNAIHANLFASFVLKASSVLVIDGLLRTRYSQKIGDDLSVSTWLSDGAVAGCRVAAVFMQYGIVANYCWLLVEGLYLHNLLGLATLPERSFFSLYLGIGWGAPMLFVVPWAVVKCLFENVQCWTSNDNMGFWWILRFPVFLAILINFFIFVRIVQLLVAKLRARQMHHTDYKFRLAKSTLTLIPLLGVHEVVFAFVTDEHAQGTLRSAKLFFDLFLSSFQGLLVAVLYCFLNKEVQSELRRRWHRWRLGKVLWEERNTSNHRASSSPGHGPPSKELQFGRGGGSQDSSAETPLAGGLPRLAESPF

| hGCGR/hGLP1R (hTone) (human GCGR) | EC50 (human GLP1R) [nM] | Structure (SMILES) |
| --- | --- | --- |
| 35.14 | 0.13 | CCCCCCCCCCCCCCCC(=O)N[C@@H](CCC(=O)N[C@@H](CCC(=O)NCCCC[C@H](NC(=O)[C@H](CC(=O)O)NC(=O)[C@H](CO)NC(=O)[C@@H](NC(=O)[C@H](Cc1ccccc1)NC(=O)[C@@H](NC(=O)CNC(=O)[C@H](CCC(N)=O)NC(=O)C(C)(C)NC(=O)[C@@H](N)Cc1c[nH]cn1)[C@@H](C)O)[C@@H](C)O)C(=O)N[C@@H](CO)C(=O)N[C@@H](CCCCN)C(=O)N[C@@H](Cc1ccc(O)cc1)C(=O)N[C@@H](CC(C)C)C(=O)N[C@@H](CC(=O)O)C(=O)NC(C)(C)C(=O)N[C@@H](CCCNC(=N)N)C(=O)N[C@@H](C)C(=O)N[C@@H](C)C(=O)N[C@@H](CCC(N)=O)C(=O)N[C@@H](CC(=O)O)C(=O)N[C@@H](Cc1ccccc1)C(=O)N[C@H](C(=O)N[C@@]1(C)CCCC=CCCC[C@@](C)(C(=O)N[C@H](C(=O)N[C@@H](CCCCN)C(=O)N[C@@H](CCC(N)=O)C(=O)O)[C@@H](C)O)NC(=O)[C@H](CCSC)NC(=O)[C@H](CC(C)C)NC(=O)[C@H](Cc2c[nH]c3ccccc23)NC1=O)C(C)C)C(=O)O)C(=O)O [compound 14] (H-H[Aib]QGTFTSDK([γGlu-γGlu-Palmitoyl])SKYLD[Aib]RAAQDFV[S5]WLM[S5]TKQ-OH; staple 24-28) |
| 33.1 | 0.13 | CC(C)C[C@@H]1NC(=O)[C@H](Cc2c[nH]c3ccccc23)NC(=O)[C@@H](NC(=O)[C@@H](NC(=O)[C@H](Cc2ccccc2)NC(=O)[C@H](CC(=O)O)NC(=O)[C@H](CCC(N)=O)NC(=O)[C@H](C)NC(=O)[C@H](C)NC(=O)[C@H](CCCNC(=N)N)NC(=O)C(C)(C)NC(=O)[C@H](CC(=O)O)NC(=O)[C@H](CC(C)C)NC(=O)[C@H](Cc2ccc(O)cc2)NC(=O)[C@H](CCCCN)NC(=O)[C@H](CO)NC(=O)[C@H](CCCCN)NC(=O)[C@H](CC(=O)O)NC(=O)[C@H](CO)NC(=O)[C@@H](NC(=O)[C@H](Cc2ccccc2)NC(=O)[C@@H](NC(=O)CNC(=O)[C@H](CCC(N)=O)NC(=O)C(C)(C)NC(=O)[C@@H](N)Cc2c[nH]cn2)[C@@H](C)O)[C@@H](C)O)C(C)C)CCCC=CCCC[C@@H](C(=O)N[C@H](C(=O)N[C@@H](CCCCN)C(=O)N[C@@H](CCC(N)=O)C(=O)O)[C@@H](C)O)NC(=O)[C@H](CC(C)C)NC1=O [compound 18] (H-H[Aib]QGTFTSDKSKYLD[Aib]RAAQDFV[Nle(6-ylidene)]WLL[Nle(6-ylidene)]TKQ-OH; staple 24-28) |
